Data from patent US7375058B2, “Herbicidal mixtures based on 3-phenyluracils” (priority 2002, dated 2008).
Structures can show the parent of a compound that is named as a salt.

Key:
BRAPL = experiment: Greenhouse post-emergence herbicidal action against BRAPL; type: in vivo, Brachiaria plantaginea
Source text: (§1) For the post-emergence treatment, the test plants were first grown to a height of 3 to 20 cm, depending on the plant habit, and only then treated. Here, the herbicidal compositions were suspended or emulsified in water as distribution medium and sprayed using finely distributing nozzles
(§2) The respective components A and B and/or C were formulated as 10% by weight strength emulsion concentrate and introduced to the spray liquor with the amount of solvent system used for applying the active compound. In the examples, the solvent used was water.
(§3) The test period extended over 21 days. During this time, the plants were tended, and their response to the treatments with active compound was evaluated.
(§4) The evaluation for the damage caused by the chemical compositions was carried out using a scale from 0 to 100%, compared to the untreated control plants. Here, 0 means no damage and 100 means complete destruction of the plants.
(§5) In the examples below, the value E which is to be expected if the activity of the individual compounds is just additive was calculated using the method of S. R. Colby (1967) “Calculating synergistic and antagonistic responses of herbicide combinations”, Weeds 15, p. 22 ff. E=X+Y−([…]) where • X=effect in percent using active compound A at an application rate a; • Y=effect in percent using active compound B at an application rate b; • E=expected effect (in %) of A+B at application rates a+b.
(§6) If the observed effect is higher than the value E calculated according to Colby, a synergistic effect is present.

ABUTH = experiment: Greenhouse post-emergence herbicidal action against ABUTH; type: in vivo, Abutilon theophrasti
Source text: as §1, §2, §3, §4, §5, §6

POLPE = experiment: Greenhouse post-emergence herbicidal action against POLPE; type: in vivo, Polygonum persicaria; conditions: 21 days
Source text: as §1, §2, §3, §4, §5, §6

AVEFA = experiment: Greenhouse post-emergence herbicidal action against AVEFA; type: in vivo, Avena fatua
Source text: as §1, §2, §3, §4, §5, §6

BIDPI = experiment: Greenhouse post-emergence herbicidal action against BIDPI; type: in vivo, Bidens pilosa
Source text: as §1, §2, §3, §4, §5, §6

ECHCG = experiment: Greenhouse post-emergence herbicidal action against ECHCG; type: in vivo, Echinochloa crus-galli
Source text: as §1, §2, §3, §4, §5, §6

SETFA = experiment: Greenhouse post-emergence herbicidal action against SETFA; type: in vivo, Setaria faberii
Source text: as §1, §2, §3, §4, §5, §6

GALAP = experiment: Greenhouse post-emergence herbicidal action against GALAP; type: in vivo, Galium aparine
Source text: as §1, §2, §3, §4, §5, §6

ALOMY = experiment: Greenhouse post-emergence herbicidal action against ALOMY; type: in vivo, Alopecurus myosuroides; conditions: 21 days
Source text: as §1, §2, §3, §4, §5, §6

TRFPR = experiment: Pre-emergence herbicidal action against TRFPR; type: in vivo, Trifolium pratense; conditions: 21 days
Description: as §4
(§7) In the examples below, the mixtures were applied by the pre-emergence method. To this end, the test plants were initially sown and covered with a thin layer of soil. Afterward (i.e. prior to the germination of the test plants), the mixtures according to the invention were sprayed onto the soil as an aqueous spray liquor at the stated application rate. As in the post-emergence method described above, the test period was 21 days. The damage was then evaluated as described above using a scale from 0 to 100% damage in comparison to untreated control plants (0% damage).
(§8) A safener action is present if the damage to the crop plant caused by using a mixture according to the invention which contains a safener C) is less than the damage caused when active compound A or active compounds A and B are used without safener.

TRZAW = experiment: Pre-emergence safener action (crop damage) in TRZAW; type: in vivo, Triticum aestivum (Winter wheat); conditions: 21 days
Description: as §4, §7, §8

POAPR = experiment: Pre-emergence herbicidal action against POAPR; type: in vivo, Poa pratensis; conditions: 21 days
Description: as §4, §7, §8

[1] = I.14 0.49 g/ha and/or b13.3 62.5 g/ha
[2] = I.14 0.98 g/ha and/or b13.3 125 g/ha
[3] = 21 days, application rate g/ha: I.7 1.95, b3.2 62.5
[4] = 21 days, application rate g/ha: I.7 3.91, b3.2 125
[5] = I.14 0.49 g/ha and/or b10.3 62.5 g/ha
[6] = I.14 0.98 g/ha and/or b10.3 125 g/ha
[7] = I.7 200 g/ha and/or c.1 200 g/ha
[8] = I.7 400 g/ha and/or c.1 400 g/ha
[9] = I.8 200 g/ha and/or c.1 200 g/ha
[10] = I.8 400 g/ha and/or c.1 400 g/ha
[11] = I.14 0.49 g/ha and/or b11.1 62.5 g/ha
[12] = I.14 0.98 g/ha and/or b11.1 125 g/ha
[13] = I.1 1.95 g/ha and/or b10.1 125 g/ha
[14] = I.1 3.91 g/ha and/or b10.1 250 g/ha

CNC.O=C(O)COc1ccc(Cl)cc1Cl [b13.3, 2,4-D dimethylammonium salt, reference compound]
Herbicidal action against BRAPL found (BRAPL; [1]): 20% | Herbicidal action against BRAPL found (BRAPL; [2]): 50% | Herbicidal action against ABUTH found (ABUTH; [1]): 25% | Herbicidal action against ABUTH found (ABUTH; [2]): 65%

C[n+]1ccc(-c2cc[n+](C)cc2)cc1 [b3.4, paraquat, reference compound]
Herbicidal action against ABUTH found (ABUTH; 21 days, application rate g/ha: I.7 0.98, b3.4 31.25): 0% | Herbicidal action against ABUTH found (ABUTH; 21 days, application rate g/ha: I.7 1.95, b3.4 62.5): 40%

CCOC(=O)/C(Cl)=C/c1cc(N2C(=O)C3=C(CCCC3)C2=O)ccc1Cl [b4.1, cinidon-ethyl, reference compound]
Herbicidal action against POLPE found (POLPE; application rate g/ha: I.1 0.49, b4.1 0.98): 40% | Herbicidal action against POLPE found (POLPE; application rate g/ha: I.1 0.98, b4.1 1.95): 50%

O=C(Nc1ccc(F)cc1)c1cccc(Oc2cccc(C(F)(F)F)c2)n1 [b5.1, picolinafen, reference compound]
Herbicidal action against BRAPL found (BRAPL; 21 days, application rate g/ha: I.8 0.98, b5.1 7.81): 20% | Herbicidal action against BRAPL found (BRAPL; 21 days, application rate g/ha: I.8 1.95, b5.1 15.63): 20% | Herbicidal action against POLPE found (POLPE; application rate g/ha: I.8 0.98, b5.1 7.81): 30% | Herbicidal action against POLPE found (POLPE; application rate g/ha: I.8 1.95, b5.1 15.63): 40%

CP(=O)(O)CCC(N)C(=O)O (stereo not drawn) [b7.1, glufosinate ammonium salt, reference compound]
Herbicidal action against POLPE found (POLPE; application rate g/ha: I.7 1.95, b7.1 250): 0% | Herbicidal action against POLPE found (POLPE; application rate g/ha: I.7 3.91, b7.1 500): 30% | Herbicidal action against AVEFA found (AVEFA; 21 days, application rate g/ha: I.7 1.95, b7.1 250): 0% | Herbicidal action against AVEFA found (AVEFA; 21 days, application rate g/ha: I.7 3.91, b7.1 500): 20%

CCc1cnc(C2=NC(C)(C(C)C)C(=O)N2)c(C(=O)O)c1 (stereo not drawn) [b2.2, imazethapyr, reference compound]
Herbicidal action against BIDPI found (BIDPI; 21 days, application rate g/ha: I.8 0.49, b2.2 7.81): 20% | Herbicidal action against BIDPI found (BIDPI; 21 days, application rate g/ha: I.8 0.98, b2.2 15.63): 20%

COc1c(Cl)ccc(Cl)c1C(=O)O [b13.2, dicamba, reference compound]
Herbicidal action against ECHCG found (ECHCG; I.14 1.95 g/ha and/or b13.2 125 g/ha): 0% | Herbicidal action against ECHCG found (ECHCG; I.14 3.91 g/ha and/or b13.2 250 g/ha): 30%

CN(C)C(=O)Nc1ccc(Cl)c(Cl)c1 [b3.2, diuron, reference compound]
Herbicidal action against BRAPL found (BRAPL; [3]): 25% | Herbicidal action against BRAPL found (BRAPL; [4]): 60% | Herbicidal action against ECHCG found (ECHCG; [3]): 15% | Herbicidal action against ECHCG found (ECHCG; [4]): 20%

CCOCN(C(=O)CCl)c1c(C)cccc1CC [b10.2, acetochlor, reference compound]
Herbicidal action against BIDPI found (BIDPI; 21 days, application rate g/ha: I.14 1.95, b10.2 250): 30% | Herbicidal action against BIDPI found (BIDPI; 21 days, application rate g/ha: I.14 3.91, b10.2 500): 70%

CCc1cccc(C)c1N(C(=O)CCl)[C@@H](C)COC [b10.3, S-metolachlor, reference compound]
Herbicidal action against SETFA found (SETFA; [5]): 30% | Herbicidal action against SETFA found (SETFA; [6]): 60% | Herbicidal action against GALAP found (GALAP; [5]): 0% | Herbicidal action against GALAP found (GALAP; [6]): 25%

CCCC(=NOCC(C)Oc1ccc(Cl)cc1)C1=C(O)CC(C2CCCSC2)CC1=O (stereo not drawn) [b1.2, profoxydim, reference compound]
Herbicidal action against ABUTH found (ABUTH; 21 days, application rate g/ha: I.1 1.95, b1.2 31.25): 30% | Herbicidal action against ABUTH found (ABUTH; 21 days, application rate g/ha: I.1 3.91, b1.2 62.5): 40%

COCc1cnc(C2=NC(C)(C(C)C)C(=O)N2)c(C(=O)O)c1 (stereo not drawn) [b2.1, imazamox, reference compound]
Herbicidal action against ALOMY found (ALOMY; application rate g/ha: I.8 0.49, b2.1 7.81): 40% | Herbicidal action against ALOMY found (ALOMY; application rate g/ha: I.8 0.98, b2.1 15.63): 70%

CCO/N=C(\CC)C1=C(O)CC(c2c(C)cc(C)cc2C)CC1=O (stereo not drawn) [b1.1, tralkoxydim, reference compound]
Herbicidal action against GALAP found (GALAP; 21 days, application rate g/ha: I.1 1.95, b1.1 62.5): 0% | Herbicidal action against GALAP found (GALAP; 21 days, application rate g/ha: I.1 3.91, b1.1 125): 0%

COc1cc(OC)nc(NC(=O)NS(=O)(=O)c2ncccc2C(=O)N(C)C)n1 [b2.3, nicosulfuron, reference compound]
Herbicidal action against BRAPL found (BRAPL; 21 days, application rate g/ha: I.14 0.49, b2.3 0.98): 70% | Herbicidal action against BRAPL found (BRAPL; 21 days, application rate g/ha: I.14 0.98, b2.3 1.95): 70% | Herbicidal action against ALOMY found (ALOMY; application rate g/ha: I.14 0.49, b2.3 0.98): 50% | Herbicidal action against ALOMY found (ALOMY; application rate g/ha: I.14 0.98, b2.3 1.95): 60%

CCOC(=O)C1=NN(c2ccc(Cl)cc2Cl)C(C)(C(=O)OCC)C1 (stereo not drawn) [c.1, mefenpyr-diethyl, reference compound]
Herbicidal action against TRFPR (TRFPR; [7]): 5% | Herbicidal action against TRFPR (TRFPR; [8]): 5% | Herbicidal action against TRFPR (TRFPR; [9]): 5% | Herbicidal action against TRFPR (TRFPR; [10]): 5% | Damage to crop plant TRZAW (TRZAW; [7]): 0% | Damage to crop plant TRZAW (TRZAW; [8]): 0% | Damage to crop plant TRZAW (TRZAW; [9]): 0% | Damage to crop plant TRZAW (TRZAW; [10]): 0% | Herbicidal action against POAPR (POAPR; [7]): 0% | Herbicidal action against POAPR (POAPR; [8]): 0% | Herbicidal action against POAPR (POAPR; [9]): 0% | Herbicidal action against POAPR (POAPR; [10]): 0%

CCC(CC)Nc1c([N+](=O)[O-])cc(C)c(C)c1[N+](=O)[O-] [b9.1, pendimethalin, reference compound]
Herbicidal action against AVEFA found (AVEFA; 21 days, application rate g/ha: I.1 0.98, b9.1 125): 10% | Herbicidal action against AVEFA found (AVEFA; 21 days, application rate g/ha: I.1 1.95, b9.1 250): 20%

CC(C)c1ccc(NC(=O)N(C)C)cc1 [b3.3, isoproturon, reference compound]
Herbicidal action against ABUTH found (ABUTH; 21 days, application rate g/ha: I.7 0.98, b3.3 31.25): 0% | Herbicidal action against ABUTH found (ABUTH; 21 days, application rate g/ha: I.7 1.95, b3.3 62.5): 40%

CS(=O)(=O)c1ccc(C(=O)C2C(=O)CCCC2=O)c(Cl)c1 [b5.2, sulcotrione, reference compound]
Herbicidal action against ECHCG found (ECHCG; 21 days, application rate g/ha: I.8 1.95, b5.2 31.25): 60% | Herbicidal action against ECHCG found (ECHCG; 21 days, application rate g/ha: I.8 3.91, b5.2 62.5): 75%

CCNc1nc(Cl)nc(NC(C)C)n1 [b3.1, atrazine, reference compound]
Herbicidal action against POLPE found (POLPE; application rate g/ha: I.7 1.95, b3.1 62.5): 50% | Herbicidal action against POLPE found (POLPE; application rate g/ha: I.7 3.91, b3.1 125): 60% | Herbicidal action against AVEFA found (AVEFA; 21 days, application rate g/ha: I.7 1.95, b3.1 62.5): 0% | Herbicidal action against AVEFA found (AVEFA; 21 days, application rate g/ha: I.7 3.91, b3.1 125): 0%

CC(C)N.O=C(O)CNCP(=O)(O)O [b6.1, glyphosate isopropylammonium salt, reference compound]
Herbicidal action against AVEFA found (AVEFA; 21 days, application rate g/ha: I.7 1.95, b6.1 125): 0% | Herbicidal action against AVEFA found (AVEFA; 21 days, application rate g/ha: I.7 3.91, b6.1 250): 0%

CCC(C)(CC)c1cc(NC(=O)c2c(OC)cccc2OC)on1 [b11.1, isoxaben, reference compound]
Herbicidal action against SETFA found (SETFA; [11]): 0% | Herbicidal action against SETFA found (SETFA; [12]): 10% | Herbicidal action against GALAP found (GALAP; [11]): 0% | Herbicidal action against GALAP found (GALAP; [12]): 0%

COC[C@H](C)N(C(=O)CCl)c1c(C)csc1C [b10.1, dimethenamid-P, reference compound]
Herbicidal action against BIDPI found (BIDPI; [13]): 25% | Herbicidal action against BIDPI found (BIDPI; [14]): 25% | Herbicidal action against AVEFA found (AVEFA; [13]): 30% | Herbicidal action against AVEFA found (AVEFA; [14]): 30%
